Assays:
Type in all cases: toxicity, cell-based
HEK-293T = assay: Incucyte cell viability with HEK293T; settings: human, 10 µM, compound concentration 10 uM
Fibroblast = assay: Incucyte cell viability with human fibroblast; settings: 10 µM, compound concentration 10 uM
U2OS = assay: Incucyte cell viability with U2OS; settings: human, 10 µM, compound concentration 10 uM
[1] = 0 h, replicate number 2, timepoint 0 hours
[2] = 6 h, replicate number 1, timepoint 6 hours
[3] = 12 h, replicate number 2, timepoint 12 hours
[4] = 18 h, replicate number 1, timepoint 18 hours
[5] = 24 h, replicate number 1, timepoint 24 hours
[6] = 0 h, replicate number 1, timepoint 0 hours
[7] = 12 h, replicate number 1, timepoint 12 hours
[8] = 18 h, replicate number 2, timepoint 18 hours
[9] = 6 h, replicate number 2, timepoint 6 hours
[10] = 24 h, replicate number 2, timepoint 24 hours
Further: filed as whole numbers so only -1 and 0 and 1 occur.

For COc1cc2c(cc1-c1c(C)noc1C)ncc1[nH]c(=O)n([C@H](C)c3ccccn3)c12, the “Growth Rate” value (HEK-293T; [1]) was 0, the “Growth Rate” value (HEK-293T; [2]) was 0 and the “Growth Rate” value (HEK-293T; [3]) was 0. For the same molecule, the “Growth Rate” value (HEK-293T; [4]) was 0, the “Growth Rate” value (HEK-293T; [5]) was 0 and the “Growth Rate” value (Fibroblast; [6]) was 0. For the same molecule, the “Growth Rate” value (Fibroblast; [7]) was 1, the “Growth Rate” value (Fibroblast; [3]) was 0 and the “Growth Rate” value (Fibroblast; [4]) was 0. For the same molecule, the “Growth Rate” value (Fibroblast; [5]) was 0, the “Growth Rate” value (U2OS; [6]) was 0 and the “Growth Rate” value (U2OS; [2]) was 1. For the same molecule, the “Growth Rate” value (U2OS; [7]) was 1, the “Growth Rate” value (U2OS; [4]) was 1 and the “Growth Rate” value (U2OS; [5]) was 1.
In the case of FC(F)(F)c1c(N2CCC(c3ccccc3)CC2)ccn2c(CC3CC3)nnc12, the “Growth Rate” value (HEK-293T; [1]) is reported as 0, the “Growth Rate” value (HEK-293T; [2]) is reported as 0 and the “Growth Rate” value (HEK-293T; [7]) is reported as 0. The “Growth Rate” value (HEK-293T; [4]) was 0, the “Growth Rate” value (HEK-293T; [5]) was 0 and the “Growth Rate” value (Fibroblast; [6]) was 0. The “Growth Rate” value (Fibroblast; [2]) was 1, the “Growth Rate” value (Fibroblast; [7]) was 1 and the “Growth Rate” value (Fibroblast; [4]) was 1. The “Growth Rate” value (Fibroblast; [8]) was 0, the “Growth Rate” value (Fibroblast; [5]) was 0 and the “Growth Rate” value (U2OS; [1]) was 0. For the same molecule, the “Growth Rate” value (U2OS; [2]) was 0, the “Growth Rate” value (U2OS; [9]) was 1 and the “Growth Rate” value (U2OS; [7]) was 0. The “Growth Rate” value (U2OS; [3]) was 1, the “Growth Rate” value (U2OS; [4]) was 0 and the “Growth Rate” value (U2OS; [8]) was 1. For the same molecule, the “Growth Rate” value (U2OS; [5]) was 0 and the “Growth Rate” value (U2OS; [10]) was 1.
CCCc1cc(C)[nH]c(=O)c1CNC(=O)c1cc(-c2ccnc(N3CCN(C)CC3)c2)cc2c1cnn2C(C)C was tested, and the “Growth Rate” value (HEK-293T; [1]) was 1, the “Growth Rate” value (HEK-293T; [2]) was 0 and the “Growth Rate” value (HEK-293T; [7]) was 0. For the same molecule, the “Growth Rate” value (HEK-293T; [4]) was 0, the “Growth Rate” value (HEK-293T; [5]) was 0 and the “Growth Rate” value (Fibroblast; [6]) was 0. The “Growth Rate” value (Fibroblast; [9]) was 0, the “Growth Rate” value (Fibroblast; [7]) was 1 and the “Growth Rate” value (Fibroblast; [4]) was 1. The “Growth Rate” value (Fibroblast; [8]) was 0, the “Growth Rate” value (Fibroblast; [5]) was 1 and the “Growth Rate” value (Fibroblast; [10]) was 0. The “Growth Rate” value (U2OS; [6]) was 0, the “Growth Rate” value (U2OS; [2]) was 0 and the “Growth Rate” value (U2OS; [7]) was 1. The “Growth Rate” value (U2OS; [4]) was 0, the “Growth Rate” value (U2OS; [5]) was 0 and the “Growth Rate” value (U2OS; [10]) was 1.
Cn1cc(-c2ccc3occ(-c4ccccc4-c4ccccc4)c3n2)cn1 was tested, and the “Growth Rate” value (HEK-293T; [6]) was 0, the “Growth Rate” value (HEK-293T; [9]) was 1 and the “Growth Rate” value (HEK-293T; [3]) was 0. For the same molecule, the “Growth Rate” value (HEK-293T; [4]) was 1, the “Growth Rate” value (HEK-293T; [5]) was 1 and the “Growth Rate” value (HEK-293T; [10]) was 0. The “Growth Rate” value (Fibroblast; [1]) was 0, the “Growth Rate” value (Fibroblast; [2]) was 1 and the “Growth Rate” value (Fibroblast; [7]) was 0. The “Growth Rate” value (Fibroblast; [3]) was 1, the “Growth Rate” value (Fibroblast; [4]) was 0 and the “Growth Rate” value (Fibroblast; [8]) was 1. The “Growth Rate” value (Fibroblast; [5]) was 0, the “Growth Rate” value (U2OS; [6]) was 0 and the “Growth Rate” value (U2OS; [2]) was 1. For the same molecule, the “Growth Rate” value (U2OS; [7]) was 1, the “Growth Rate” value (U2OS; [4]) was 0 and the “Growth Rate” value (U2OS; [8]) was 1. The “Growth Rate” value (U2OS; [5]) was 1.
In the case of CN(C)C(=O)c1ccc(-c2cc(C(=O)N(C)C3CCCC3)no2)cc1O, the “Growth Rate” value (HEK-293T; [6]) is reported as 0, the “Growth Rate” value (HEK-293T; [2]) is reported as 1 and the “Growth Rate” value (HEK-293T; [7]) is reported as 0. The “Growth Rate” value (HEK-293T; [3]) was 1, the “Growth Rate” value (HEK-293T; [4]) was 1 and the “Growth Rate” value (HEK-293T; [5]) was 1. The “Growth Rate” value (Fibroblast; [6]) was 0, the “Growth Rate” value (Fibroblast; [7]) was 1 and the “Growth Rate” value (Fibroblast; [4]) was 1. For the same molecule, the “Growth Rate” value (Fibroblast; [5]) was 1, the “Growth Rate” value (U2OS; [6]) was 1 and the “Growth Rate” value (U2OS; [2]) was 1. For the same molecule, the “Growth Rate” value (U2OS; [7]) was 1, the “Growth Rate” value (U2OS; [4]) was 1 and the “Growth Rate” value (U2OS; [8]) was 0. For the same molecule, the “Growth Rate” value (U2OS; [5]) was 1 and the “Growth Rate” value (U2OS; [10]) was 0.
With C[C@H]1CCCN1Cc1nc2cc(NC(=O)c3ccc4cnccc4c3)ccc2[nH]1 the “Growth Rate” value (HEK-293T; [6]) was 1, the “Growth Rate” value (HEK-293T; [1]) was 0 and the “Growth Rate” value (HEK-293T; [2]) was 0. The “Growth Rate” value (HEK-293T; [7]) was 0, the “Growth Rate” value (HEK-293T; [4]) was 1 and the “Growth Rate” value (HEK-293T; [5]) was 1. For the same molecule, the “Growth Rate” value (HEK-293T; [10]) was 0, the “Growth Rate” value (Fibroblast; [6]) was 0 and the “Growth Rate” value (Fibroblast; [2]) was 0. The “Growth Rate” value (Fibroblast; [7]) was 1, the “Growth Rate” value (Fibroblast; [4]) was 0 and the “Growth Rate” value (Fibroblast; [8]) was 1. The “Growth Rate” value (Fibroblast; [5]) was 0, the “Growth Rate” value (Fibroblast; [10]) was 1 and the “Growth Rate” value (U2OS; [6]) was 0. For the same molecule, the “Growth Rate” value (U2OS; [2]) was 0, the “Growth Rate” value (U2OS; [7]) was 1 and the “Growth Rate” value (U2OS; [4]) was 1. The “Growth Rate” value (U2OS; [5]) was 1.
For C[C@@H](NCCc1ccc(O)cc1)[C@@H](O)c1ccc(O)cc1.Cl (relative stereo), the “Growth Rate” value (HEK-293T; [6]) was 0, the “Growth Rate” value (HEK-293T; [2]) was 0 and the “Growth Rate” value (HEK-293T; [9]) was 1. The “Growth Rate” value (HEK-293T; [7]) was 0, the “Growth Rate” value (HEK-293T; [3]) was 1 and the “Growth Rate” value (HEK-293T; [4]) was 0. The “Growth Rate” value (HEK-293T; [5]) was 0, the “Growth Rate” value (Fibroblast; [6]) was 0 and the “Growth Rate” value (Fibroblast; [8]) was 1. The “Growth Rate” value (Fibroblast; [10]) was 1, the “Growth Rate” value (U2OS; [6]) was 0 and the “Growth Rate” value (U2OS; [9]) was 1. The “Growth Rate” value (U2OS; [7]) was 1, the “Growth Rate” value (U2OS; [4]) was 1 and the “Growth Rate” value (U2OS; [5]) was 1.
CCCCN(CCCC)C(=O)CN1C[C@@H](c2cc(OC)c3c(c2)OCO3)[C@H](C(=O)O)[C@H]1CC(C)(C)CCC [A-545] was tested, and the “Growth Rate” value (HEK-293T; [2]) was 0, the “Growth Rate” value (HEK-293T; [7]) was 0 and the “Growth Rate” value (HEK-293T; [4]) was 0. For the same molecule, the “Growth Rate” value (HEK-293T; [5]) was 0, the “Growth Rate” value (Fibroblast; [2]) was 0 and the “Growth Rate” value (Fibroblast; [7]) was 0. The “Growth Rate” value (Fibroblast; [4]) was 0, the “Growth Rate” value (Fibroblast; [5]) was 0 and the “Growth Rate” value (U2OS; [6]) was 0. For the same molecule, the “Growth Rate” value (U2OS; [2]) was 0, the “Growth Rate” value (U2OS; [7]) was 0 and the “Growth Rate” value (U2OS; [3]) was 1. The “Growth Rate” value (U2OS; [4]) was 0 and the “Growth Rate” value (U2OS; [5]) was 0.
CCCOc1ccc([C@@H]2[C@@H](C(=O)O)[C@H](c3ccc4c(c3)OCO4)CN2CC(=O)Nc2c(CC)cccc2CC)cc1 [A-1806262] was tested, and the “Growth Rate” value (HEK-293T; [6]) was 0, the “Growth Rate” value (HEK-293T; [2]) was 1 and the “Growth Rate” value (HEK-293T; [7]) was 1. For the same molecule, the “Growth Rate” value (HEK-293T; [4]) was 1, the “Growth Rate” value (HEK-293T; [5]) was 1 and the “Growth Rate” value (HEK-293T; [10]) was 0. The “Growth Rate” value (Fibroblast; [6]) was 0, the “Growth Rate” value (Fibroblast; [1]) was 1 and the “Growth Rate” value (Fibroblast; [2]) was 1. The “Growth Rate” value (Fibroblast; [9]) was 0, the “Growth Rate” value (Fibroblast; [7]) was 1 and the “Growth Rate” value (Fibroblast; [3]) was 0. The “Growth Rate” value (Fibroblast; [4]) was 1, the “Growth Rate” value (Fibroblast; [8]) was 0 and the “Growth Rate” value (Fibroblast; [5]) was 1. For the same molecule, the “Growth Rate” value (Fibroblast; [10]) was 0, the “Growth Rate” value (U2OS; [6]) was 0 and the “Growth Rate” value (U2OS; [2]) was 1. The “Growth Rate” value (U2OS; [9]) was 0, the “Growth Rate” value (U2OS; [7]) was 1 and the “Growth Rate” value (U2OS; [4]) was 1. For the same molecule, the “Growth Rate” value (U2OS; [8]) was 0, the “Growth Rate” value (U2OS; [5]) was 1 and the “Growth Rate” value (U2OS; [10]) was 0.
In the case of NS(=O)(=O)c1cc(NC(=O)C2(c3ccccc3Cl)CC2)ccc1Oc1cccc(Cl)c1 [BAY-207], the “Growth Rate” value (HEK-293T; [6]) is reported as 0, the “Growth Rate” value (HEK-293T; [2]) is reported as 0 and the “Growth Rate” value (HEK-293T; [7]) is reported as 0. For the same molecule, the “Growth Rate” value (HEK-293T; [4]) was 0, the “Growth Rate” value (HEK-293T; [5]) was 0 and the “Growth Rate” value (Fibroblast; [6]) was 0. The “Growth Rate” value (Fibroblast; [2]) was 1, the “Growth Rate” value (Fibroblast; [9]) was 0 and the “Growth Rate” value (Fibroblast; [3]) was 1. For the same molecule, the “Growth Rate” value (Fibroblast; [4]) was 1, the “Growth Rate” value (Fibroblast; [5]) was 1 and the “Growth Rate” value (U2OS; [6]) was 0. The “Growth Rate” value (U2OS; [2]) was 0, the “Growth Rate” value (U2OS; [7]) was 0 and the “Growth Rate” value (U2OS; [4]) was 0. The “Growth Rate” value (U2OS; [5]) was 1 and the “Growth Rate” value (U2OS; [10]) was 0.
For CC1=C(C#N)C(c2ccc3c(c2)c(NC(=O)c2ccccc2C)nn3C)C(C#N)=C(C)N1 [BAY-974], the “Growth Rate” value (HEK-293T; [6]) was 0, the “Growth Rate” value (HEK-293T; [1]) was 1 and the “Growth Rate” value (HEK-293T; [10]) was 1. The “Growth Rate” value (Fibroblast; [1]) was 0, the “Growth Rate” value (Fibroblast; [2]) was 1 and the “Growth Rate” value (Fibroblast; [7]) was 1. For the same molecule, the “Growth Rate” value (Fibroblast; [4]) was 1, the “Growth Rate” value (Fibroblast; [5]) was 1 and the “Growth Rate” value (U2OS; [1]) was 0. For the same molecule, the “Growth Rate” value (U2OS; [2]) was 1, the “Growth Rate” value (U2OS; [9]) was 0 and the “Growth Rate” value (U2OS; [7]) was 1. The “Growth Rate” value (U2OS; [3]) was 0, the “Growth Rate” value (U2OS; [4]) was 1 and the “Growth Rate” value (U2OS; [5]) was 1.

Reference: ChEMBL document CHEMBL4689842, “EUbOPEN Chemogenomics Library wave 1” (2021)
